Values of other authors, collected in patent US20110287117A1, “Adjuvant Therapy in the Treatment of Gouty Arthritis” (UNIVERSITY OF MEDICINE AND DENTISTRY OF NEW JERSEY, priority 2009, published 2011).

Settings: in vivo

In the case of “recombinant IL-6: recombinant interleukin 6 administered in a cited study”, the “serum SU level” value is listed as “lowered” and the “urinary secretion of uric acid” value is listed as “increased”.
